Test results: publication PMC5708365, “Histone lysine methyltransferase structure activity relationships that allow for segregation of G9a inhibition and anti-Plasmodium activity” (MedChemComm, 2017)

target: T1, G9a (Homo sapiens, UniProt Q96KQ7); settings: SPA, 5 nM G9a, H3 1-25 peptide 0.8 μM, 3H-SAM 8 μM
T1 sequence (Q96KQ7 1-1210): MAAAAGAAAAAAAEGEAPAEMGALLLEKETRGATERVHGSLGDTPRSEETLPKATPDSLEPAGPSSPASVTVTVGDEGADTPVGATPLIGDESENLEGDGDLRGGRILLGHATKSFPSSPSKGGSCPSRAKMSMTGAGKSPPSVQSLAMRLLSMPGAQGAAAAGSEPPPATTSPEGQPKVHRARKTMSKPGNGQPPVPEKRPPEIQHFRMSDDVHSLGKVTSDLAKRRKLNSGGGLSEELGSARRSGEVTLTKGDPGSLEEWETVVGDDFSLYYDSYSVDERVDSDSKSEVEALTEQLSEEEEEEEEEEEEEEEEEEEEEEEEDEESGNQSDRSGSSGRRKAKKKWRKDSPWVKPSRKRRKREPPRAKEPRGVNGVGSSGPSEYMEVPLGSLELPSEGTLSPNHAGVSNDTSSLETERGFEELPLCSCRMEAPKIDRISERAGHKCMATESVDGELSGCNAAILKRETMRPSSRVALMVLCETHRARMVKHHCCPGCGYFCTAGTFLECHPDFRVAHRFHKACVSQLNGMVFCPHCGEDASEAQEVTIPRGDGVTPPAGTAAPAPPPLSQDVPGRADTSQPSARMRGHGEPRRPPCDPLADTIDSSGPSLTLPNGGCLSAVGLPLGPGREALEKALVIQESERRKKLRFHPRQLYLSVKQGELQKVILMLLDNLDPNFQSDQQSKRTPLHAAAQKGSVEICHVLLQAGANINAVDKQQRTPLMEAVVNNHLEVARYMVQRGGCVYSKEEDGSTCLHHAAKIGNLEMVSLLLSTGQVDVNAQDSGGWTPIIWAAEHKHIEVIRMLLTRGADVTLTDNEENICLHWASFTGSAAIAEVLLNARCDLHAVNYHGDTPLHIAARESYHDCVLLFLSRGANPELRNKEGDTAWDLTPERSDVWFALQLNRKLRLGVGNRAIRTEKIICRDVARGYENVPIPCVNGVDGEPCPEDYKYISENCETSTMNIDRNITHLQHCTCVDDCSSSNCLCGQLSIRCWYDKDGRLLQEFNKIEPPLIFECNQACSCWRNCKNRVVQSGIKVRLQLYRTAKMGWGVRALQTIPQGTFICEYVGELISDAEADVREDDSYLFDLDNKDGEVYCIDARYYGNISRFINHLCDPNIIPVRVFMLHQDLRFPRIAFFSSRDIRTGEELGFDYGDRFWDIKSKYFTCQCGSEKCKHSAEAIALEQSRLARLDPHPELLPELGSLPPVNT

| G9a IC50 | Structure (SMILES) |
| --- | --- |
| virtually no G9a inhibition | COc1cc2c(NC3CCN(Cc4ccccc4)CC3)nc(N3CCN(C)CC3)nc2cc1OCc1ccccc1 [compound 61] |
| virtually no G9a inhibition | COc1cc2c(NC3CCN(Cc4ccccc4)CC3)nc(N3CCCCC3)nc2cc1OCc1ccccc1 [compound 62] |

| Structure (SMILES) | G9a IC50 |
| --- | --- |
| COc1cc2c(NC3CCN(C)CC3)nc(N3CCCN(C)CC3)nc2cc1OCc1ccccc1 [compound 60] | complete loss of G9a activity |

same assay, conditions: read-out: G9a IC50; SPA, 5 nM G9a, H3 1-25 peptide 0.8 μM, 3H-SAM 8 μM

| IC50 [nM] | Structure (SMILES) |
| --- | --- |
| 319 | COc1cc2nc(N3CCCCC3)nc(NC3CCN(C(C)C)CC3)c2cc1OC [compound 54] |
| 6440 | COc1cc2nc(N3CCN(C)CC3)nc(NC3CCCCC3)c2cc1OC [compound 55] |
| > 10000 | COc1cc2nc(N3CCN(C)CC3)nc(Nc3ccccc3)c2cc1OC [compound 57] |
| > 10000 | COc1cc2nc(N3CCCCC3)nc(Nc3ccccc3)c2cc1OC [compound 58] |
| > 10000 | COc1cc2nc(N3CC(C)CC(C)C3)nc(Nc3ccccc3)c2cc1OC (centres unmarked) [compound 59] |
| ~10000 | COc1cc2c(NC3CCN(Cc4ccccc4)CC3)nc(N3CCN(C)CC3)nc2cc1OCc1ccccc1 [compound 61] |
| > 50000 | COc1cc2c(NC3CCN(Cc4ccccc4)CC3)nc(N3CCCCC3)nc2cc1OCc1ccccc1 [compound 62] |
| 4 | COc1cc2c(NC3CCN(C(C)C)CC3)nc(N3CCN(C)CC3)nc2cc1OCCCN1CCCCC1 [compound 68] |
| < 3 | COc1cc2c(NC3CCN(Cc4ccccc4)CC3)nc(N3CCCN(C)CC3)nc2cc1OCCCN(C)C [compound 69] |
| 8 | COc1cc2c(NC3CCN(Cc4ccccc4)CC3)nc(N3CCN(C)CC3)nc2cc1OCCCN(C)C [compound 70] |
| 211 | CCCCCCCCOc1cc2nc(N3CCCN(C)CC3)nc(NC3CCN(Cc4ccccc4)CC3)c2cc1OC [compound 73] |
| 39 | CCCCCCOc1cc2nc(N3CCCN(C)CC3)nc(NC3CCN(Cc4ccccc4)CC3)c2cc1OC [compound 74] |
| 39 | CCCCCCOc1cc2nc(NCCCN(C)C)nc(NC3CCN(Cc4ccccc4)CC3)c2cc1OC [compound 75] |
| 1020 | CCCCCCCCOc1cc2nc(N3CCN(C)CC3)nc(NC3CCN(Cc4ccccc4)CC3)c2cc1OC [compound 76] |
| 114 | CCCCCCOc1cc2nc(N3CCN(C)CC3)nc(NC3CCN(Cc4ccccc4)CC3)c2cc1OC [compound 77] |
| ~1000 | CCCCCOc1cc2nc(N3CCN(C)CC3)nc(NC3CCN(Cc4ccccc4)CC3)c2cc1OC [compound 78] |
| 683 | CCCCOc1cc2nc(N3CCN(C)CC3)nc(NC3CCN(Cc4ccccc4)CC3)c2cc1OC [compound 79] |
| 843 | CCCCOc1cc2nc(N3CCN(C)CC3)nc(NC3CCN(C(C)C)CC3)c2cc1OC [compound 80] |
| 5340 | COc1cc2c(NC3CCN(Cc4ccccc4)CC3)nc(N3CCN(C)CC3)nc2cc1OCCC(C)C [compound 81] |
| 2030 | COc1cc2c(NC3CCN(C(C)C)CC3)nc(N3CCN(C)CC3)nc2cc1OCCC(C)C [compound 82] |
| 223 | COc1cc2c(NC3CCN(Cc4ccccc4)CC3)nc(N3CCN(C)CC3)nc2cc1OCCCSC [compound 83] |
| 575 | COc1cc2c(NC3CCN(Cc4ccccc4)CC3)nc(N3CCN(C)CC3)nc2cc1OCCCCSC [compound 84] |
| > 50000 | COc1cc2cc(N3CCC(OC)CC3)nc(NC3CCN(Cc4ccccc4)CC3)c2cc1OC [compound 86, N-(1-Benzylpiperidin-4-yl)-6,7-dimethoxy-3-(4-methoxypiperidin-1-yl)isoquinolin-1-amine] |
| > 25000 | COc1cc2cc(N3CCCCC3)nc(NC3CCN(Cc4ccccc4)CC3)c2cc1OC [compound 87, N-(1-Benzylpiperidin-4-yl)-6,7-dimethoxy-3-(piperidin-1-yl)isoquinolin-1-amine] |
| 30 | COc1cc2nc(N3CCN(C)CC3)cc(NC3CCN(C)CC3)c2cc1OC [compound 91, 6,7-Dimethoxy-2-(4-methylpiperazin-1-yl)-N-(1-methylpiperidin-4-yl)quinolin-4-amine] |

| Structure (SMILES) | IC50 [nM] |
| --- | --- |
| COc1cc2c(NC3CCN(C)CC3)nc(N3CCCN(C)CC3)nc2cc1OCc1ccccc1 [compound 60] | > 1000 |
